The source of these data is patent publication US10696693B2, “Fused imidazole derivatives as TGF-beta inhibitors” (Rigel Pharmaceuticals, Inc., priority 2014, dated 2020).

Like-named read-outs stand apart in the source and are kept apart here. Bounds are passed on as bounds.

For assay [1], the system named is GDF8. In words: AlphaScreen SureFire p-SMAD3 (Ser423/425) assay, GDF8-stimulated cells. It counts as cell-based. In short, it runs like this:
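Lysate (5 μL) went into 384-well shallow plates with 5 μL of Reaction Buffer, Activation Buffer and AlphaScreen Acceptor bead mix. Plates were sealed, kept dark and shaken for 2 hours at room temperature. Donor beads in dilution buffer (2 μL) were added for another 1½ hours, and p-SMAD3 signal was read on a Synergy-4 or Enspire reader.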
Background: Bead proximity is the source of the signal in Alpha formats.

Assay [2] has as its system TGF-β. In words: AlphaScreen SureFire p-SMAD3 (Ser423/425) assay, TGF-β-stimulated cells. The class given is cell-based. In short, it runs like this:
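The p-SMAD-3 (Ser423/425) SureFire assay measured phosphorylation of endogenous SMAD-3 in cell lysates. Cells were plated overnight in collagen-coated plates, exposed to three-fold serially diluted compounds for about 10 minutes, then stimulated with TGFβ. Lysates (5 μL) received acceptor bead mix for 2 hours, then donor beads for 1½ hours before AlphaScreen reading.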

The mark [3] stands for this setting: Mus musculus, MPC-11, p-SMAD3 (Ser423/425) AlphaScreen in cell lysate, MPC11, GDF8 stimulation, read-out: GDF8: inhibition of GDF8 signaling, GDF pSMAD (MPC11).
Setting [4] is: Mus musculus, p-SMAD3 (Ser423/425) AlphaScreen in cell lysate, MPC-11, TGF-β stimulation, read-out: TGF-β: inhibition of TGF-β signaling, TGF-β pSMAD (MPC-11).
Setting [5] is: Mus musculus, MPC-11, read-out: GDF8: inhibition of GDF8 signaling, GDF pSMAD (MPC11), p-SMAD3 (Ser423/425) AlphaScreen in cell lysate, GDF8 stimulation.
Where [6] appears, read: Mus musculus, MPC-11, read-out: TGF-β: inhibition of TGF-β signaling, TGF-β pSMAD (MPC-11), p-SMAD3 (Ser423/425) AlphaScreen in cell lysate, TGF-β stimulation.
Setting [7] is: read-out: GDF8: inhibition of GDF8 signaling, GDF pSMAD (MPC11), p-SMAD3 (Ser423/425) AlphaScreen in cell lysate, GDF8 stimulation.
Setting [8] is: read-out: TGF-β: inhibition of TGF-β signaling, TGF-β pSMAD (MPC-11), p-SMAD3 (Ser423/425) AlphaScreen in cell lysate, TGF-β stimulation.

On to `Cc1ccc(Cl)cc1-c1nc2n(c1-c1ccc3ncccc3c1)CCC2` [Compound 340, 6-(2-(5-chloro-2-methylpheny)-6,7-dihydro-5H-pyrrolo[1,2-a]imidazol-3-yl)quinoline], for which the IC50 in assay [1] (setting [3]) and in assay [2] (setting [4]) was 100 to 1000 nM each time.

In the case of `Cc1cc(-c2nc3n(c2-c2ccc4ncccc4c2)CCC3)c(F)cc1Cl` [Compound 255], the IC50 in assay [1] (setting [3]) and in assay [2] (setting [4]) was above 1000 nM each time.

Regarding `Fc1cc(F)cc(-c2nc3n(c2-c2ccc4ncccc4c2)CCC3)c1` [Compound 234, 6-(2-(3,5-difluorophenyl)-6,7-dihydro-5H-pyrrolo[1,2-a]imidazol-3-yl)quinoline], the IC50 in assay [1] (setting [5]) and in assay [2] (setting [6]) was above 1000 nM throughout.

Consider `Cc1cc(-c2nc3n(c2-c2ccc4ncnn4c2)CCC3)c(Cl)cc1F` [Compound 69, 6-(2-(2-chloro-4-fluoro-5-methylphenyl)-6,7-dihydro-5H-pyrrolo[1,2-a]imidazol-3-yl)-[1,2,4]triazolo[1,5-a]pyridine], for which the figures for the IC50 in assay [1] (setting [3]) and in assay [2] (setting [4]) were 50 to 100 nM and 100 to 1000 nM, respectively.

Turning to `Cc1c(F)ccc(-c2nc3n(c2-c2ccc4nccn4c2)CCC3)c1Cl` [Compound 67, 6-(2-(2-chloro-4-fluoro-3-methylphenyl)-6,7-dihydro-5H-pyrrolo[1,2-a]imidazol-3-yl)imidazo[1,2-a]pyridine], the IC50 in assay [1] (setting [3]) is 100 to 1000 nM; in assay [2] (setting [4]) it was above 1000 nM.

Consider `Cc1cc(-c2nc3n(c2-c2ccc4ncccc4c2)CCC3)c(Cl)cc1F` [Compound 322, 6-(2-(2-chloro-4-fluoro-5-methylphenyl)-6,7-dihydro-5H-pyrrolo[1,2-a]imidazol-3-yl)quinoline], for which the IC50 in assay [1] (setting [7]) and in assay [2] (setting [8]) was above 1000 nM each time.

In the case of `Cc1cc(-c2nc3n(c2-c2ccc4ncccc4c2)CCC3)cc(C)c1F` [Compound 279], the IC50 in assay [1] (setting [3]) and in assay [2] (setting [4]) was above 1000 nM each time.

As for `Cc1cc(-c2nc3n(c2-c2ccc4nccn4c2)CCC3)c(C)cc1F` [Compound 65, 6-(2-(4-fluoro-2,5-dimethylphenyl)-6,7-dihydro-5H-pyrrolo[1,2-a]imidazol-3-yl)imidazo[1,2-a]pyridine], the IC50 in assay [1] (setting [3]) is 100 to 1000 nM; in assay [2] (setting [4]) it was above 1000 nM.

For the compound `COCCOc1cnc2ccc(-c3c(-c4cc(F)cc(F)c4F)nc4n3CCN4)cc2n1` [Compound 117, 2-(2-methoxyethoxy)-7-(2-(2,3,5-trifluorophenyl)-5,6-dihydro-7λ^2-imidazo[3,2-a]imidazol-3-yl)quinoxaline], the IC50 is 100 to 1000 nM in assay [1] (setting [5]) and above 1000 nM in assay [2] (setting [6]).

Turning to `Fc1ccc(-c2nc3n(c2-c2ccc4ncsc4c2)CCC3)cc1Cl` [Compound 265, 6-(2-(3-chloro-4-fluoropheny)-6,7-dihydro-5H-pyrrolo[1,2-a]imidazol-3-yl)benzo[d]thiazole], the figures for the IC50 in assay [1] (setting [3]) and in assay [2] (setting [4]) were 50 to 100 nM and 100 to 1000 nM, respectively.

Turning to `Cc1cc(F)ccc1-c1nc2n(c1-c1ccc3nccnc3c1)CCC2` [Compound 294, 6-(2-(4-fluoro-2-methylphenyl)-6,7-dihydro-5H-pyrrolo[1,2-a]imidazol-3-yl)quinoxaline], the IC50 in assay [1] (setting [5]) and in assay [2] (setting [6]) was above 1000 nM throughout.

For `Cc1cc(-c2nc3n(c2-c2ccc4ncccc4c2)CCC3)c(F)cc1F` [Compound 271, 6-(2-(2,4-difluoro-5-methylphenyl)-6,7-dihydro-5H-pyrrolo[1,2-a]imidazol-3-yl)quinoline], the results for the IC50 in assay [1] (setting [3]) and in assay [2] (setting [4]) were below 50 nM and 100 to 1000 nM, respectively.

Regarding `Cc1cc(-c2nc3n(c2-c2ccc4nccnc4c2)CCC3)c(Cl)cc1F` [Compound 318, 6-(2-(2-chloro-4-fluoro-5-methylphenyl)-6,7-dihydro-5H-pyrrolo[1,2-a]imidazol-3-yl)quinoxaline], the IC50 was in the range of 50 to 100 nM in assay [1] (setting [7]) and 100 to 1000 nM in assay [2] (setting [8]).

On to `Fc1ccc(Cl)cc1-c1nc2n(c1-c1cc3cnccc3s1)CCC2` [Compound 102, 2-(2-(5-chloro-2-fluorophenyl)-6,7-dihydro-5H-pyrrolo[1,2-a]imidazol-3-yl)thieno[3,2-c]pyridine], for which the IC50 in assay [1] (setting [3]) is below 50 nM; in assay [2] (setting [4]), 50 to 100 nM.

With `Cc1cccc(-c2nc3occn3c2-c2ccc3[nH]ncc3c2)c1` [Compound 139, 6-(m-tolyl)-5-(1H-indazol-5-yl)imidazo[2,1-b]oxazole], the IC50 in assay [1] (setting [3]) and in assay [2] (setting [4]) was below 50 nM each time.

With `Cc1ccc(-c2nc3occn3c2Br)c(F)c1` [Compound 153, 5-bromo-6-(2-fluoro-4-methylphenyl)imidazo[2,1-b]oxazole], the IC50 in assay [1] (setting [3]) and in assay [2] (setting [4]) was above 1000 nM throughout.

For `Fc1ccc(-c2nc3n(c2-c2ccc4ncsc4c2)CCC3)c(F)c1` [Compound 203, 6-(2-(2,4-difluorophenyl)-6,7-dihydro-5H-pyrrolo[1,2-a]imidazol-3-yl)benzo[d]thiazole], the IC50 in assay [1] (setting [3]) is below 50 nM; in assay [2] (setting [4]), 100 to 1000 nM.

Turning to `Cc1ccc(Cl)cc1-c1nc2n(c1-c1ccc3ncsc3c1)CCC2` [Compound 350, 6-(2-(5-chloro-2-methylphenyl)-6,7-dihydro-5H-pyrrolo[1,2-a]imidazol-3-yl)benzo[d]thiazole], the IC50 in assay [1] (setting [5]) lay within 50 to 100 nM; in assay [2] (setting [6]), 100 to 1000 nM.

In the case of `Fc1ccc(-c2nc3occn3c2-c2ccc3nccn3c2)c(F)c1F` [Compound 163, 5-(imidazo[1,2-a]pyridin-6-yl)-6-(2,3,4-trifluorophenyl)imidazo[2,1-b]oxazole], the IC50 lay within 50 to 100 nM in assay [1] (setting [3]) and 100 to 1000 nM in assay [2] (setting [4]).

For the compound `Fc1cc(F)c(-c2nc3n(c2-c2ccc4ncccc4c2)CCN3)cc1F` [Compound 107, 6-(6-(2,4,5-trifluorophenyl)-2,3-dihydro-1H-imidazo[1,2-a]imidazol-5-yl)quinoline], the IC50 in assay [1] (setting [3]) and in assay [2] (setting [4]) was below 50 nM each time.

As for `Fc1cccc(-c2nc3n(c2-c2ccc4ncccc4c2)CCC3)c1` [Compound 209, 6-(2-(3-fluorophenyl)-6,7-dihydro-5H-pyrrolo[1,2-a]imidazol-3-yl)quinoline], the IC50 was 100 to 1000 nM in assay [1] (setting [3]) and above 1000 nM in assay [2] (setting [4]).

For `Fc1cc(-c2nc3n(c2-c2ccc4nccnc4c2)CCC3)c(F)cc1Cl` [Compound 241, 6-(2-(4-chloro-2,5-difluorophenyl)-6,7-dihydro-5H-pyrrolo[1,2-a]imidazol-3-yl)quinoxaline], the IC50 in assay [1] (setting [3]) and in assay [2] (setting [4]) was above 1000 nM in each case.

On to `Cc1ccc(F)cc1-c1nc2n(c1-c1ccc3nccnc3c1)CCC2` [Compound 302, 6-(2-(5-fluoro-2-methylphenyl)-6,7-dihydro-5H-pyrrolo[1,2-a]imidazol-3-yl)quinoxaline], for which the IC50 in assay [1] (setting [5]) and in assay [2] (setting [6]) was above 1000 nM in each case.

Consider `Cc1cc(-c2nc3n(c2-c2ccc4ncsc4c2)CCC3)c(Cl)cc1F` [Compound 317, 6-(2-(2-chloro-4-fluoro-5-methylphenyl)-6,7-dihydro-5H-pyrrolo[1,2-a]imidazol-3-yl)benzo[d]thiazole], for which the results for the IC50 in assay [1] (setting [7]) and in assay [2] (setting [8]) were 50 to 100 nM and 100 to 1000 nM, respectively.

Turning to `Cc1ccc(-c2nc3n(c2-c2ccc4nccnc4c2)CCC3)c(F)c1F` [Compound 250, 6-(2-(2,3-difluoro-4-methylphenyl)-6,7-dihydro-5H-pyrrolo[1,2-a]imidazol-3-yl)quinoxaline], the IC50 in assay [1] (setting [3]) and in assay [2] (setting [4]) was above 1000 nM in each case.

As to `Cc1cc(-c2nc3n(c2-c2ccc4cn[nH]c4c2)CCC3)c(F)cc1Cl` [Compound 252, 6-(2-(4-chloro-2-fluoro-5-methylphenyl)-6,7-dihydro-5H-pyrrolo[1,2-a]imidazol-3-yl)-1H-indazole], the IC50 in assay [1] (setting [3]) and in assay [2] (setting [4]) was above 1000 nM in each case.

For `Cc1ccc(-c2nc3n(c2-c2ccc4nccn4c2)CCC3)c(F)c1F` [Compound 27], the IC50 in assay [1] (setting [3]) and in assay [2] (setting [4]) was above 1000 nM each time.

With `Fc1ccc(-c2nc3occn3c2-c2ccc3ncsc3c2)cc1F` [Compound 135, 5-(benzo[d]thiazol-6-yl)-6-(3,4-difluorophenyl)imidazo[2,1-b]oxazole], the IC50 in assay [1] (setting [3]) is below 50 nM; in assay [2] (setting [4]) it was 50 to 100 nM.

With `Cc1cc(-c2nc3n(c2-c2ccc4ncnn4c2)CCC3)cc(Cl)c1F` [Compound 40, 6-(2-(3-chloro-4-fluoro-5-methylphenyl)-6,7-dihydro-5H-pyrrolo[1,2-c]imidazol-3-yl)-[1,2,4]triazolo[1,5-c]pyridine], the IC50 in assay [1] (setting [3]) and in assay [2] (setting [4]) was above 1000 nM throughout.

On to `CC(=O)N1c2nc(-c3cc(F)cc(F)c3F)c(-c3ccc4ncnn4c3)n2CC1C(=O)O` (centres unmarked) [Compound 119, 5-([1,2,4]triazolo[1,5-a]pyridin-6-yl)-1-acetyl-6-(2,3,5-trifluorophenyl)-2,3-dihydro-1H-imidazo[1,2-a]imidazole-2-carboxylic acid], for which the IC50 in assay [1] (setting [3]) and in assay [2] (setting [4]) was below 50 nM in each case.

Consider `Fc1ccc(-c2nc3occn3c2-c2ccc3ncsc3c2)cc1` [Compound 127, 5-(benzo[d]thiazol-6-yl)-6-(4-fluorophenyl)imidazo[2,1-b]oxazole], for which the IC50 in assay [1] (setting [3]) and in assay [2] (setting [4]) was below 50 nM throughout.
